Results published in patent US7348161B2, “Macrolide efflux genetic assembly” (Emory University, priority 2001, dated 2008).
In brackets after ≈: the same amount, converted by molar mass. Numbered stars: 1 amine (or outer) side, 2 acyl side, 3 side chain; on linkers, the order of the positions; unused ones are H or OH. Bridge positions count the residues as written; N and C are the ends. Square brackets hold non-standard residues; d marks the D form. Peptide text beside a SMILES is read from it. * marks the point of attachment. X1 = O=C1C[C@@H](C(=O)[*:2])N([*:1])C[C@H]1CS[C@@H]1CN2CCC1CC2; NMePhe(4-NMe2) = CN[C@@H](Cc1ccc(N(C)C)cc1)C(=O)O; Picolinoyl(3-OH) = O=C(c1ncccc1O)*; Phg = N[C@H](C(=O)O)c1ccccc1; dAbu = CC[C@@H](N)C(=O)O

Assays:
MefE = settings: proton motive function of MefE; refs [9,10]; cited from earlier work
[1] = system: invasive pneumococcal isolates; assay: Preliminary screening of 1998 invasive pneumococcal isolates for quinupristin resistance; assay type: cell-based, S. pneumoniae
S. pneumoniae isolates = assay: Antimicrobial susceptibility (NCCLS guidelines) of invasive S. pneumoniae isolates; assay type: cell-based; settings: Streptococcus pneumoniae
[2] = system: pneumococci containing ermAM; settings: typical value; cited from earlier work

Molecule: arsenate
- Effect on efflux of [14C]-erythromycin (MefE): decrease in the efflux

Molecule: CC[C@H]1NC(=O)[C@@H](NC(=O)c2ncccc2O)[C@@H](C)OC(=O)[C@H](c2ccccc2)NC(=O)[C@@H]2CC(=O)[C@H](CS[C@@H]3CN4CCC3CC4)CN2C(=O)[C@H](Cc2ccc(N(C)C)cc2)N(C)C(=O)[C@@H]2CCCN2C1=O [quinupristin] ({Picolinoyl(3-OH)}-T[dAbu]P[NMePhe(4-NMe2)][X1][Phg]; ester 1-C)
- Share of isolates resistant [1]: approximately half were resistant

Molecule: CC[C@H]1OC(=O)[C@H](C)[C@@H](O[C@H]2C[C@@](C)(OC)[C@@H](O)[C@H](C)O2)[C@H](C)[C@@H](O[C@@H]2O[C@H](C)C[C@H](N(C)C)[C@H]2O)[C@](C)(O)C[C@@H](C)C(=O)[C@H](C)[C@@H](O)[C@]1(C)O [erythromycin]
- MIC (S. pneumoniae isolates; eighty-nine mefE-containing isolates, January 1994 to February 1996): ≥ 4 µg/mL
- MIC (S. pneumoniae isolates; subset of 336 erythromycin-resistant isolates, 1994-1996 and 1998): 4 µg/mL (≈ 5.45 µM)
- Erythromycin MIC [2]: 64 µg/mL

Molecule: N#CC(C#N)=NNc1cccc(Cl)c1 [carbonylcyanide-m-chlorophenylhydrazone]
- Effect on efflux of [14C]-erythromycin (MefE): decrease in the efflux
